Results taken from US9102673B2, “Substituted pyrrolo[3,2-c]pyridines as TrkA kinase inhibitors” (Merck Sharp & Dohme Corp., priority 2011, dated 2015).

Molecular target: T1, TrkA (Homo sapiens, UniProt P04629)
T1 construct: purchased Cell Signaling
Assay: TrkA kinase activity: phosphorylation of a fluorescently labeled peptide substrate (Caliper EZReader II)
Assay type: biochemical
Details: [E]=0.37 nM, [S]=1 μM, [ATP]=2 mM, room temperature, 3 hours; read-out: Trk A EC50
Experimental: TrkA kinase activity was measured as the ability of the enzyme to phosphorylate a fluorescently labeled peptide substrate. Buffer salts, reagents, and fluorescently labeled peptides were purchased from Carna Biosciences and were of the highest quality available (QSS Assist TRICA_MSA Kit). Enzyme was purchased from Cell Signaling, and was used without further purification. 384-well round bottom assay plates were prepared by the addition of […] of a DMSO solution of compound at various concentrations to final inhibitor concentrations ranging from 100 μM to 0.2 μM. Next, assay buffer (10 μl) containing substrate and ATP were added, followed by addition of 10 μl of enzyme in assay buffer. Final assays concentrations were: [E]=0.37 nM, [S]=1 μM, [ATP]=2 mM. The reactions were incubated at room temperature for 3 hours resulting in approximately 15% substrate phosphorylation and were terminated by the addition of 5 μl of stop buffer. Substrates and products were separated on the Caliper EZReader II (Caliper LifeSciences, Inc.) using standard separation protocols. The percent inhibition was calculated for each compound concentration and the IC50 was determined using equation 1.

T1 sequence (P04629 33-796): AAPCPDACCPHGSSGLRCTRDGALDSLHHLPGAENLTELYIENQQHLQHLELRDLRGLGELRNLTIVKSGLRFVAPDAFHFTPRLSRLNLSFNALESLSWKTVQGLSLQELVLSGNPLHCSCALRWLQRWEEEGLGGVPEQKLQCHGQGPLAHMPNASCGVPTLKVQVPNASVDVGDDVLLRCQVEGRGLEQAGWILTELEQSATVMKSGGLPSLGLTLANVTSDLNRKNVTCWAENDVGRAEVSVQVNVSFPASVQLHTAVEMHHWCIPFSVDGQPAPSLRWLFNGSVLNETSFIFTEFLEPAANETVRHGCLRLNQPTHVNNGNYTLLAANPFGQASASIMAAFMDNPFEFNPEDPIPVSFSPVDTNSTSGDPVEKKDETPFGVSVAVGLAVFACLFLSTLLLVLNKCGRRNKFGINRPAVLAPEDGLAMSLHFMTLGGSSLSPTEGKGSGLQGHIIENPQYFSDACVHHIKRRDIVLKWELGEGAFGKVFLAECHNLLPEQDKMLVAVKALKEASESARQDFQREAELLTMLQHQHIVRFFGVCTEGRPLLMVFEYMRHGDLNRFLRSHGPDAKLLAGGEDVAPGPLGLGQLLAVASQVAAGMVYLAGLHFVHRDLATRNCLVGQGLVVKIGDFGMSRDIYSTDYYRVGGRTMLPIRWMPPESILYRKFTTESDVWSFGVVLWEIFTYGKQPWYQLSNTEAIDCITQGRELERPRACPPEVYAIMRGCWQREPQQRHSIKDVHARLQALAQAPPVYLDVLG

SMILES	EC50
O=C(O)c1cc2c(-c3cccc4ncccc34)nccc2n1Cc1noc(-c2ccccc2)n1 [Example 16, 1-[(5-phenyl-1,2,4-oxadiazol-3-yl)methyl]-4-(quinolin-5-yl)-1H-pyrrolo[3,2-c]pyridine-2-carboxylic acid]	5360 nM
CCOc1cccc(-c2nccc3c2cc(C(=O)O)n3CCOc2ccc(C(F)(F)F)nc2)c1 [Example 38, 4-(3-Ethoxyphenyl)-1-(2-{[6-(trifluoromethyl)Pyridin-3-yl]oxy}ethyl)-1H-pyrrolo[3,2-c]pyridine-2-carboxylic acid]	3920 nM
CCCNc1ncc(-c2nccc3c2cc(C(=O)O)n3CCOc2ccc(OC(F)(F)F)cc2)s1 [Example 57, 4-[2-(propylamino)-1,3-thiazol-5-yl]-1-{2-[4-(trifluoromethoxy)phenoxy]ethyl}-1H-pyrrolo[3,2-c]pyridine-2-carboxylic acid]	162 nM
CCCNc1nccc(-c2nccc3c2cc(C(=O)O)n3CCOc2ccc(OC(F)(F)F)cc2)n1 [Example 58, 4-[2-(propylamino)pyrimidin-4-yl]-1-{2-[4-(trifluoromethoxy)phenoxy]ethyl}-1H-pyrrolo[3,2-c]pyridine-2-carboxylic acid]	30700 nM
CCOc1cccc(-c2nccc3c2cc(C(=O)O)n3CCOc2ccc(Oc3nccs3)cc2)c1 [Example 73, 4-(3-ethoxyphenyl)-1-{2-[4-(1,3-thiazol-2-yloxy)phenoxy]ethyl}-1H-pyrrolo[3,2-c]pyridine-2-carboxylic acid]	776 nM
O=C(O)c1cc2cc(-c3cn[nH]c3)ccc2n1CCOc1ccc(OC(F)(F)F)cc1 [Example 76, 5-(1H-pyrazol-4-yl)-1-{2-[4-(trifluoromethoxy)phenoxy]ethyl}-1H-indole-2-carboxylic acid]	28.5 nM
O=C(O)c1cc2cc(-c3cncnc3)ccc2n1CCOc1ccc(OC(F)(F)F)cc1 [Example 78, 5-pyrimidin-5-yl-1-{2-[4-(trifluoromethoxy)phenoxy]ethyl}-1H-indole-2-carboxylic acid]	38.7 nM
O=C(O)c1cc2cc(-c3cccnc3)ccc2n1CCOc1ccc(OC(F)(F)F)cc1 [Example 81, 5-pyridin-3-yl-1-{2-[4-(trifluoromethoxy)phenoxy]ethyl}-1H-indole-2-carboxylic acid]	469 nM
CCOc1cccc(-c2nccc3c(CCOc4ccc(OC(F)(F)F)cc4)c(C(=O)O)[nH]c23)c1 [Example 91, 7-(3-ethoxyphenyl)-3-{2-[4-(trifluoromethoxy)phenoxy]ethyl}-1H-pyrrolo[2,3-d]pyridine-2-carboxylic acid]	34.9 nM
CCOc1cccc(-c2nccn3c(CCOc4ccc(OC(F)(F)F)cc4)c(C(=O)O)nc23)c1 [Example 92, 8-(3-ethoxyphenyl)-3-{2-[4-(trifluoromethoxy)phenoxy]ethyl}imidazo[1,2-a]pyrazine-2-carboxylic acid]	1210 nM
